# Where two headings read alike, the source gives them in different places.
# How the values were obtained:
# [1] = system: macrophages RAW 264.7; assay: Formation of osteoclasts from macrophages RAW 264.7 (RANKL, TRAP stain); assay type: cell-based; settings: Mus musculus, RAW264.7, 120 h; 10 nM, RANKL 50 ng/ml, 5 days; read-out: inhibition percentage
# Protocol: If macrophages RAW 264.7 are incubated in culture plates containing 50 ng/ml of differentiation inducer, RANKL, they usually differentiate into osteoclasts after 5 days. In Experiment H, various concentrations (0, 10, and 50 μM) of kinsenoside or 10 nM of estradiol were added into culture plates containing macrophages RAW 264.7, respectively, and the macrophages RAW 264.7 were incubated for 5 days. […] The number of osteoclasts was counted, and the inhibition percentage of the formation of osteoclasts was calculated with the following formula, and the result is shown in Table 11. Inhibition percentage=(the number of osteoclasts in the control group−the number of osteoclasts in the experimental group)/the number of osteoclasts in the control group×100%
# [2] = system: myelocytes of rats; assay: Formation of osteoclasts from rat myelocytes (RANKL + M-CSF, TRAP stain); assay type: cell-based, Wistar rats; settings: Rattus norvegicus, Osteoclast, 216 h, 10 nM, 9 days
# Protocol: Myelocytes were first prepared. Male Wistar rats with the body weight of 250 g to 300 g were used to prepare myelocytes. Under the condition of anaesthesia, the femurs of the rats were taken, and myelocytes were washed out with a phosphate buffer solution. […] After incubation for 9 days, monocytes in the marrow differentiated into osteoclasts. The osteoclasts were stained with a TRAP (tartrate-resistant acid phosphatase) stain reagent (Sigma, Louis, Mo., USA), and the number of the osteoclasts was calculated. Besides the same RANKL and M-CSF as the control group, various concentrations (0, 5, 25, 50, and 100 μM) of kinsenoside or 10 nM of estradiol (Wako, Japan) were added into culture plates, respectively. Then, rat myelocytes were incubated for 9 days, and the situation that the myelocytes differentiated into osteoclasts was observed. The percentage of the inhibition effect of kinsenoside and estradiol on the formation of osteoclasts was calculated with the following formula, and the result is shown in Table 9. Inhibition percentage (%)=(the number of osteoclasts of the control group−the number of osteoclasts of the experimental group)/the number of osteoclasts of the control group×100% In addition to the aforesaid RANKL, kinsenoside, and/or estradiol, the inhibitor of estradiol, Fulvestrant (Sigma, Louis, Mo., USA) (1 nM), was also added into culture plates. Then, rat myelocytes were incubated for 9 days, and the situation that the myelocytes differentiated into osteoclasts was observed. The percentage of the inhibition effect of kinsenoside on the formation of osteoclasts was calculated, and the result is shown in Table 9.
smiles,measurement,setting,value
"C[C@]12CC[C@@H]3c4ccc(O)cc4CC[C@H]3[C@@H]1CC[C@@H]2O [estradiol, reference compound]",inhibition at 0.01 µM,[1],61 ± 16%
same,inhibition at 0.01 µM,"[2]; with Fulvestrant 1 nM, read-out: inhibition percentage Experimental Group II",24 ± 13.5%
same,inhibition at 0.01 µM,"[2]; without Fulvestrant, read-out: inhibition percentage Experimental Group I",45.7 ± 10.5%
